Three compounds from ChEMBL document CHEMBL1121944, “Conformation-activity study of 4-phenylpiperidine analgesics” (1982) can be followed below.

Each structure is given as a SMILES string.

Test [1] can be described thus: Relative potency was determined to 3-dimethyl prodine after brain penetration. Type of test: functional.
Test [2] in a line: Analgesic activity was determined. Type of test: functional.

A word on the ED50: it is the midpoint of the dose-response relation.

`CCC(=O)O[C@@]1(c2ccccc2)CCN(C)C[C@@H]1C` [BETAPRODINE] came in with a Relative potency in test [1] of 1.77. In test [2], this compound gave an ED50 of 5.21 mg/kg.
In the case of `CCC(=O)OC1(c2ccccc2)CCN(C)CC1C` (stereo unspecified) [ALPHAPRODINE], the Relative potency in test [1] was 1.24. For the same compound, in test [2], the ED50 is 1.45 mg/kg.
The like results for `CCC(=O)OC1(c2ccccc2)CCN(C)CC1` were, in that order, 1 and 1 mg/kg.
